Measurements as given in patent publication US11807644B2 (PMV Pharmaceuticals, Inc., priority 2020, dated 2023).

Target: T1, recombinant His-tag Y220C p53 DBD protein (Homo sapiens, UniProt P04637, Y220C)
T1 construct: recombinant His-tag Y220C p53 DBD protein (amino acids #˜94-312)
Assay: In vitro DNA binding activity assay (TR-FRET): binding of His-tag Y220C p53 DBD to biotin-labeled consensus DNA
Format: biochemical
Settings: SC150 = concentration to increase DNA binding by […], His-tag Y220C p53 DBD, biotin-labeled consensus DNA

| Y220C SC150 (μM) | Compound |
| --- | --- |
| * (* = 0 μM ≤ SC150 < 0.1 μM) | CN1CC[C@@H](Nc2cccc3c2cc(-c2noc(CNC(=O)c4ccn(C(C)(C)CO)c4)n2)n3CC(F)(F)F)[C@@H](F)C1 [Compound 441B] |
| * (* = 0 μM ≤ SC150 < 0.1 μM) | CN1CC[C@@H](Nc2cccc3c2cc(-c2noc(CNC(=O)c4ccc(C5(C)CC5)s4)n2)n3CC(F)(F)F)[C@@H](F)C1 [Compound 446B] |
| * (* = 0 μM ≤ SC150 < 0.1 μM) | CN1CC[C@@H](Nc2cccc3c2cc(-c2noc(CNC(=O)c4cnn(C5(C)CC5)c4)n2)n3CC(F)(F)F)[C@@H](F)C1 [Compound 448B, N-{[3-(4-{[(3S,4R)-3-fluoro-1-methylpiperidin-4-yl]amino}-1-(2,2,2-trifluoroethyl)-1H-indol-2-yl)-1,2,4-oxadiazol-5-yl]methyl}-1-(1-methylcyclopropyl)-1H-pyrazole-4-carboxamide] |
| * (* = 0 μM ≤ SC150 < 0.1 μM) | CN1CC[C@@H](Nc2cccc3c2cc(-c2noc(CNC(=O)c4ccn(C5CC(F)(F)C5)c4)n2)n3CC(F)(F)F)[C@@H](F)C1 [Compound 451B, 1-(3,3-difluorocyclobutyl)-N-{[3-(4-{[(3S,4R)-3-fluoro-1-methylpiperidin-4-yl]amino}-1-(2,2,2-trifluoroethyl)-1H-indol-2-yl)-1,2,4-oxadiazol-5-yl]methyl}-1H-pyrrole-3-carboxamide] |
| * (* = 0 μM ≤ SC150 < 0.1 μM) | CN1CC[C@@H](Nc2cccc3c2cc(-c2noc(CNc4nccc5c4cnn5C)n2)n3CC(F)(F)F)[C@@H](F)C1 [Compound 452B, N-[(3S,4R)-3-fluoro-1-methylpiperidin-4-yl]-2-{5-[({1-methyl-1H-pyrazolo[^4,3-c]pyridin-4-yl}amino)methyl]-1,2,4-oxadiazol-3-yl}-1-(2,2,2-trifluoroethyl)-1H-indol-4-amine] |
| * (* = 0 μM ≤ SC150 < 0.1 μM) | CN1CC[C@@H](Nc2cccc3c2cc(-c2noc(CNC(=O)c4cnc(N5CCCC5)s4)n2)n3CC(F)(F)F)[C@@H](F)C1 [Compound 459B, N-{[3-(4-{[(3S,4R)-3-fluoro-1-methylpiperidin-4-yl]amino}-1-(2,2,2-trifluoroethyl)-1H-indol-2-yl)-1,2,4-oxadiazol-5-yl]methyl}-2-(pyrrolidin-1-yl)-1,3-thiazole-5-carboxamide] |
| * (* = 0 μM ≤ SC150 < 0.1 μM) | CN1CC[C@@H](Nc2cccc3c2cc(-c2noc(CNC(=O)c4csc(N5CCCC5)n4)n2)n3CC(F)(F)F)[C@@H](F)C1 [Compound 460B, N-{[3-(4-{[(3S,4R)-3-fluoro-1-methylpiperidin-4-yl]amino}-1-(2,2,2-trifluoroethyl)-1H-indol-2-yl)-1,2,4-oxadiazol-5-yl]methyl}-2-(pyrrolidin-1-yl)-1,3-thiazole-4-carboxamide] |

Second part, the compound before the results:

| Compound | Y220C SC150 (μM) |
| --- | --- |
| CN1CC[C@@H](Nc2cccc3c2cc(-c2noc(CNC(=O)c4ccc(C(C)(C)C#N)s4)n2)n3CC(F)(F)F)[C@@H](F)C1 [Compound 442B, 5-(1-cyano-1-methylethyl)-N-{[3-(4-{[(3S,4R)-3-fluoro-1-methylpiperidin-4-yl]amino}-1-(2,2,2-trifluoroethyl)-1H-indol-2-yl)-1,2,4-oxadiazol-5-yl]methyl}thiophene-2-carboxamide] | * (* = 0 μM ≤ SC150 < 0.1 μM) |
| CN1CC[C@@H](Nc2cccc3c2cc(-c2noc(CNC(=O)c4cnc(C(C)(C)C)o4)n2)n3CC(F)(F)F)[C@@H](F)C1 [Compound 443B, 2-tert-butyl-N-{[3-(4-{[(3S,4R)-3-fluoro-1-methylpiperidin-4-yl]amino}-1-(2,2,2-trifluoroethyl)-1H-indol-2-yl)-1,2,4-oxadiazol-5-yl]methyl}-1,3-oxazole-5-carboxamide] | * (* = 0 μM ≤ SC150 < 0.1 μM) |
| CC(C)c1ccc(C(=O)NCc2nc(-c3cc4c(N[C@@H]5CCN(C)C[C@@H]5F)cccc4n3CC(F)(F)F)no2)s1 [Compound 444B, N-{[3-(4-{[(3S,4R)-3-fluoro-1-methylpiperidin-4-yl]amino}-1-(2,2,2-trifluoroethyl)-1H-indol-2-yl)-1,2,4-oxadiazol-5-yl]methyl}-5-(propan-2-yl)thiophene-2-carboxamide] | * (* = 0 μM ≤ SC150 < 0.1 μM) |
| CN1CC[C@@H](Nc2cccc3c2cc(-c2noc(CNc4nccc5ccsc45)n2)n3CC(F)(F)F)[C@@H](F)C1 [Compound 445B, N-[(3S,4R)-3-fluoro-1-methylpiperidin-4-yl]-2-{5-[({thieno[2,3-c]pyridin-7-yl}amino)methyl]-1,2,4-oxadiazol-3-yl}-1-(2,2,2-trifluoroethyl)-1H-indol-4-amine] | * (* = 0 μM ≤ SC150 < 0.1 μM) |
| COC(C)(C)c1cc(C(=O)NCc2nc(-c3cc4c(N[C@@H]5CCN(C)C[C@@H]5F)cccc4n3CC(F)(F)F)no2)cs1 [Compound 447B, N-{[3-(4-{[(3S,4R)-3-fluoro-1-methylpiperidin-4-yl]amino}-1-(2,2,2-trifluoroethyl)-1H-indol-2-yl)-1,2,4-oxadiazol-5-yl]methyl}-5-(2-methoxypropan-2-yl)thiophene-3-carboxamide] | * (* = 0 μM ≤ SC150 < 0.1 μM) |
| CO[C@H]1C[C@H](n2ccc(C(=O)NCc3nc(-c4cc5c(N[C@@H]6CCN(C)C[C@@H]6F)cccc5n4CC(F)(F)F)no3)c2)C1 [Compound 449B, N-{[3-(4-{[(3S,4R)-3-fluoro-1-methylpiperidin-4-yl]amino}-1-(2,2,2-trifluoroethyl)-1H-indol-2-yl)-1,2,4-oxadiazol-5-yl]methyl}-1-[(1r,3r)-3-methoxycyclobutyl]-1H-pyrrole-3-carboxamide] | * (* = 0 μM ≤ SC150 < 0.1 μM) |
| CN1CC[C@@H](Nc2cccc3c2cc(-c2noc(CNC(=O)c4cnc(N5CCOCC5)s4)n2)n3CC(F)(F)F)[C@@H](F)C1 [Compound 453B, N-{[3-(4-{[(3S,4R)-3-fluoro-1-methylpiperidin-4-yl]amino}-1-(2,2,2-trifluoroethyl)-1H-indol-2-yl)-1,2,4-oxadiazol-5-yl]methyl}-2-(morpholin-4-yl)-1,3-thiazole-5-carboxamide] | * (* = 0 μM ≤ SC150 < 0.1 μM) |
| CN1CC[C@@H](Nc2cccc3c2cc(-c2noc(CNc4nccc5c4ccn5C)n2)n3CC(F)(F)F)[C@@H](F)C1 [Compound 454B, N-[(3S,4R)-3-fluoro-1-methylpiperidin-4-yl]-2-{5-[({1-methyl-1H-pyrrolo[3,2-c]pyridin-4-yl}amino)methyl]-1,2,4-oxadiazol-3-yl}-1-(2,2,2-trifluoroethyl)-1H-indol-4-amine] | * (* = 0 μM ≤ SC150 < 0.1 μM) |
| CN1CC[C@@H](Nc2cccc3c2cc(-c2noc(CNc4nccc5sccc45)n2)n3CC(F)(F)F)[C@@H](F)C1 [Compound 457B, N-[(3S,4R)-3-fluoro-1-methylpiperidin-4-yl]-2-{5-[({thieno[3,2-c]pyridin-4-yl}amino)methyl]-1,2,4-oxadiazol-3-yl}-1-(2,2,2-trifluoroethyl)-1H-indol-4-amine] | * (* = 0 μM ≤ SC150 < 0.1 μM) |
| COCc1ccc(C(=O)NCc2nc(-c3cc4c(N[C@@H]5CCN(C)C[C@@H]5F)cccc4n3CC(F)(F)F)no2)s1 [Compound 458B, N-{[3-(4-{[(3S,4R)-3-fluoro-1-methylpiperidin-4-yl]amino}-1-(2,2,2-trifluoroethyl)-1H-indol-2-yl)-1,2,4-oxadiazol-5-yl]methyl}-5-(methoxymethyl)thiophene-2-carboxamide] | * (* = 0 μM ≤ SC150 < 0.1 μM) |
| CN1CC[C@@H](Nc2cccc3c2cc(-c2noc(CNc4cccc5c4ccn5C)n2)n3CC(F)(F)F)[C@@H](F)C1 [Compound 462B, N-[(3S,4R)-3-fluoro-1-methylpiperidin-4-yl]-2-(5-{[(1-methyl-1H-indol-4-yl)amino]methyl}-1,2,4-oxadiazol-3-yl)-1-(2,2,2-trifluoroethyl)-1H-indol-4-amine] | * (* = 0 μM ≤ SC150 < 0.1 μM) |
| CN1CC[C@@H](Nc2cccc3c2cc(-c2noc(CNc4cccc5c4cnn5C)n2)n3CC(F)(F)F)[C@@H](F)C1 [Compound 463B, N-{[3-(4-{[(3S,4R)-3-fluoro-1-methylpiperidin-4-yl]amino}-1-(2,2,2-trifluoroethyl)-1H-indol-2-yl)-1,2,4-oxadiazol-5-yl]methyl}-1-methyl-1H-indazol-4-amine] | * (* = 0 μM ≤ SC150 < 0.1 μM) |
| COCc1cc(C(=O)NCc2nc(-c3cc4c(N[C@@H]5CCN(C)C[C@@H]5F)cccc4n3CC(F)(F)F)no2)cs1 [Compound 464B, N-{[3-(4-{[(3S,4R)-3-fluoro-1-methylpiperidin-4-yl]amino}-1-(2,2,2-trifluoroethyl)-1H-indol-2-yl)-1,2,4-oxadiazol-5-yl]methyl}-5-(methoxymethyl)thiophene-3-carboxamide] | * (* = 0 μM ≤ SC150 < 0.1 μM) |
| CN1CC[C@@H](Nc2cccc3c2cc(-c2noc(CNC(=O)c4csc(N5CCOCC5)n4)n2)n3CC(F)(F)F)[C@@H](F)C1 [Compound 465B, N-{[3-(4-{[(3S,4R)-3-fluoro-1-methylpiperidin-4-yl]amino}-1-(2,2,2-trifluoroethyl)-1H-indol-2-yl)-1,2,4-oxadiazol-5-yl]methyl}-2-(morpholin-4-yl)-1,3-thiazole-4-carboxamide] | * (* = 0 μM ≤ SC150 < 0.1 μM) |
| CN1CC[C@@H](Nc2cccc3c2cc(-c2noc(CNC(=O)c4csc(CN5CCCC5)c4)n2)n3CC(F)(F)F)[C@@H](F)C1 [Compound 466B] | * (* = 0 μM ≤ SC150 < 0.1 μM) |
| COCC1(n2ccc(C(=O)NCc3nc(-c4cc5c(N[C@@H]6CCN(C)C[C@@H]6F)cccc5n4CC(F)(F)F)no3)c2)CCC1 [Compound 471B] | * (* = 0 μM ≤ SC150 < 0.1 μM) |
| CN1CC[C@@H](Nc2cccc3c2cc(-c2noc(CNC(=O)c4ccn(C5(CO)CC5)c4)n2)n3CC(F)(F)F)[C@@H](F)C1 [Compound 472B, N-{[3-(4-{[(3S,4R)-3-fluoro-1-methylpiperidin-4-yl]amino}-1-(2,2,2-trifluoroethyl)-1H-indol-2-yl)-1,2,4-oxadiazol-5-yl]methyl}-1-[1-(hydroxymethyl)cyclopropyl]-1H-pyrrole-3-carboxamide] | * (* = 0 μM ≤ SC150 < 0.1 μM) |
